Experimental data from patent US20260374766A1, “METHODS FOR TREATING CANCER” (Antares Therapeutics, Inc., priority 2022, published 2026).
pIC50, pKd: −log10 of the molar value. Where two headings read alike, the source gives them in different places.

How the values were obtained:
NUGC3 p53 Y220C = test: Cell Proliferation Assay (CellTiter-Glo, CTG), NUGC3 p53 Y220C; format: cell-based; settings: Homo sapiens, NUGC-3, 120 h, 5 days
Method: (§1) Inducible p53 Y220C and R273H constructs (Tet-One inducible expression system; Takara) were stably expressed in NClH1299 cells by lentiviral transduction. NUGC3, A549, BxPC3, T3M4, HuH7, HCC2935, MFE296, NClH1299, NClH1299-inducible p53 Y220C, and NClH1299-inducible p53 R273H cell lines were used for cell proliferation assay. 250-500 cells were seeded in each well of 384 plate and then compounds were dispensed into each well using Echo or Tecan. After 5 days of incubation, equal volume of CellTiter-Glo reagent (G7570; Promega) was added into each well and the plate was incubated at room temperature for 10 minutes with shaking. The luminescent signal was measured by PheraStar microplate reader and IC50 was calculated.

H1299 p53 R273H = test: Cell Proliferation Assay (CellTiter-Glo, CTG), H1299 p53 R273H (NClH1299-inducible p53 R273H); format: cell-based; settings: Homo sapiens, NCI-H1299, 120 h, 5 days
Method: as §1

p53 Y220C = p53 Y220C (Homo sapiens, UniProt P04637, Y220C); test: Luciferase Reporter Assay (Luc), p53 response element, NClH1299 cells with inducible p53 Y220C; format: cell-based; settings: 6 hour; for AC50: read-out: Luc P53 Y220C AC50
Method: Luciferase Reporter Assay Protocol
The cells were then used for p53 reporter assay. 5,000 cells were seeded in each well of 384 plate and cultured in 0.5 ug/mL doxycycline (D3072; Sigma) containing medium for 24 hours before compound treatment. After 6 hour of compound treatment, equal volume of One-Glo reagent (E6110; Promega) was added to each well and the plate was incubated for 5 minutes with shaking at room temperature. The luciferase activity was immediately measured with PheraStar microplate reader.

H1299 p53 Y220C = test: Cell Proliferation Assay (CellTiter-Glo, CTG), H1299 p53 Y220C (NClH1299-inducible p53 Y220C); format: cell-based; settings: Homo sapiens, NCI-H1299, 120 h, 5 days
Method: as §1

[1] = target: T1, p53 Y220C mutant protein (amino acid residues 94-293) (Homo sapiens, UniProt P04637, Y220C); test: Surface Plasmon Resonance (SPR) assay, Kd_kinetic; format: binding; settings: SPR, p53 Y220C, read-out: SPR P53 Y220C KD kinetic
T1 construct: p53 Y220C mutant protein (amino acid residues 94-293)
T1 sequence (P04637 94-293, stated change not applied): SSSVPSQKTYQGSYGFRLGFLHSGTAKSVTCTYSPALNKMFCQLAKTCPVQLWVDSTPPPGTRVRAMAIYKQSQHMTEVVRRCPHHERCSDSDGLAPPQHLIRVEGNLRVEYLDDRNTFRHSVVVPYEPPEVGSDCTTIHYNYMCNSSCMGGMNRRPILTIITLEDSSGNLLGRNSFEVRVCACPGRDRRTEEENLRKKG
Method: Surface Plasmon Resonance (SPR) Assay Protocol
SPR experiments were performed on a Biacore 8K instrument. […] The running buffer contained 50 mM Tris, pH 7.5, 100 mM NaCl, 1 mM DTT, 0.01% Brij35, 0.05% Tween-20 and 1% DMSO. The assay temperature was maintained at 16 or 20 °C and data were fit into the 1:1 binding model using the Biacore Insight Evaluation software.

[2] = NClH1299-inducible p53 R273H cells, CellTiter-Glo
[3] = Emax, luciferase reporter, NClH1299 inducible p53 Y220C
[4] = NClH1299-inducible p53 Y220C cells, CellTiter-Glo
[5] = AC50, luciferase reporter, NClH1299 inducible p53 Y220C
[6] = NClH1299-inducible p53 R273H cells
[7] = AC50, NClH1299 cells with inducible p53 Y220C
[8] = Emax, NClH1299 cells with inducible p53 Y220C, 10 uM tool compound as positive control
[9] = NClH1299-inducible p53 Y220C cells
[10] = luciferase reporter, NClH1299 inducible p53 Y220C, 10 uM tool compound as positive control
[11] = luciferase reporter, NClH1299 inducible p53 Y220C

Compound	pIC50 (H1299 p53 R273H; [2])	Emax (p53 Y220C; [3])	pIC50 (H1299 p53 Y220C; [4])	pIC50 (H1299 p53 R273H; CellTiter-Glo, H1299 p53 R273H)	Emax (p53 Y220C; [10])	AC50 (p53 Y220C; [11])	pIC50 (H1299 p53 Y220C; CellTiter-Glo, H1299 p53 Y220C)	pIC50 (NUGC3 p53 Y220C; NUGC3 cells, CellTiter-Glo)	pIC50 (NUGC3 p53 Y220C; CellTiter-Glo, NUGC3 p53 Y220C)	further results
CNC(=O)c1ccc(NCC#Cc2nc3c(N[C@@H]4C[C@H]5COC[C@H](N5)[C@@H]4F)cccn3c2SC(F)(F)F)c(OC)c1 (relative stereo) [Example 251, rel-4-{[3-(8-{[(1R,5R,6S,7S)-6-fluoro-3-oxa-9-azabicyclo [3.3.1]nonan-7-yl]amino}-3-[(trifluoromethyl)sulfanyl]imidazo[1,2-a]pyridin-2-yl)prop-2-yn-1-yl]amino}-3-methoxy-N-methylbenzamide]	≤ 5.00	80 to 90%	5.52 to 5.82	–	–	–	–	5.52 to 5.82	–	–
CNC(=O)c1ccc(NCC#Cc2nc3c(NC4CCS(=O)(=O)C4)cccn3c2SC(F)(F)F)c(OC)c1 (single isomer, unassigned) [Example 322]	≤ 5.00	> 90%	5.82 to 6.12	–	–	–	–	5.82 to 6.12	–	pKd [1]: 7.00 to 8.00; AC50 (p53 Y220C; [5]): 750 to 1500 nM
CNC(=O)c1ccc(OC)c(NCC#Cc2cc3c(N[C@@H]4CCN(CC(C)O)C[C@@H]4F)cccn3c2SC(F)(F)F)c1 (single isomer, unassigned) [Example 480, 3-{[3-(8-{[(3S,4R)-3-fluoro-1-[(2R*)-2-hydroxypropyl]piperidin-4-yl]amino}-3-[(trifluoromethyl)sulfanyl]indolizin-2-yl)prop-2-yn-1-yl]amino}-4-methoxy-N-methylbenzamide]	–	–	–	–	–	–	–	–	–	pIC50 (NUGC3 p53 Y220C; NUGC3 cells): > 6.12; pIC50 (H1299 p53 R273H; [6]): 5.00 to 5.10; pKd [1]: > 8.00; AC50 (p53 Y220C; [7]): < 750 nM; Emax (p53 Y220C; [8]): > 90%; pIC50 (H1299 p53 Y220C; [9]): > 6.12
CNC(=O)c1cc(NCC#Cc2cc3c(N[C@H]4CCN(C)C[C@H]4F)cccn3c2SC(F)(F)F)c2nccn2c1 (stereo in doubt) [Example 503, 8-{[3-(8-{[(3R,4S)-3-fluoro-1-methylpiperidin-4-yl]amino}-3-[(trifluoromethyl)sulfanyl]indolizin-2-yl)prop-2-yn-1-yl]amino}-N-methylimidazo[1,2-a]pyridine-6-carboxamide]	–	–	–	–	–	–	–	–	–	pIC50 (NUGC3 p53 Y220C; NUGC3 cells): > 6.12; pIC50 (H1299 p53 R273H; [6]): 5.10 to 5.30; pKd [1]: > 8.00; AC50 (p53 Y220C; [7]): < 750 nM; Emax (p53 Y220C; [8]): > 90%; pIC50 (H1299 p53 Y220C; [9]): > 6.12
CNC(=O)c1cc(OC)c(NCC#Cc2nc3c(N[C@@H]4CCN(C)C[C@@H]4F)cccn3c2SC(F)(F)F)cn1 [Example 120]	–	–	–	≤ 5.00	80 to 90%	< 750 nM	> 6.12	–	> 6.12	pKd ([1]; kinetic KD): > 8.00
CNS(=O)(=O)c1ccc(OC)c(NCC#Cc2cc3c(N[C@@H]4CCN(C)C[C@@H]4F)cccn3c2SC(F)(F)F)c1 [Example 132, 3-{[3-(8-{[(3S,4R)-3-fluoro-1-methylpiperidin-4-yl]amino}-3-[(trifluoromethyl)sulfanyl]indolizin-2-yl)prop-2-yn-1-yl]amino}-4-methoxy-N-methylbenzenesulfonamide]	–	–	–	5.10 to 5.30	80 to 90%	< 750 nM	> 6.12	–	> 6.12	pKd ([1]; kinetic KD): > 8.00
CNC(=O)c1ccc(N[C@H](C)C#Cc2nc3c(N[C@@H]4CCN(C)C[C@@H]4F)cccn3c2SC(F)(F)F)c(OC)c1 [Example 133]	–	–	–	5.10 to 5.30	> 90%	> 3000 nM	< 5.52	–	< 5.52	pKd ([1]; kinetic KD): 7.00 to 8.00
CNC(=O)c1ccc(N[C@@H](C)C#Cc2nc3c(N[C@@H]4CCN(C)C[C@@H]4F)cccn3c2SC(F)(F)F)c(OC)c1 [Example 134]	–	–	–	5.10 to 5.30	70 to 80%	> 3000 nM	< 5.52	–	< 5.52	pKd ([1]; kinetic KD): 7.00 to 8.00
CNC(=O)c1ccc(NCC#Cc2nc3c(N[C@@H]4C[C@H]5COC[C@@H]([C@@H]4F)N5C)cccn3c2SC(F)(F)F)c(OC)c1 [Example 137]	–	–	–	≤ 5.00	< 70%	> 3000 nM	< 5.52	–	< 5.52	pKd ([1]; kinetic KD): 7.00 to 8.00
CNC(=O)c1ccnc(NCC#Cc2nc3c(N[C@@H]4CCN(C)C[C@@H]4F)cccn3c2SC(F)(F)F)c1 [Example 150]	–	–	–	≤ 5.00	< 70%	> 3000 nM	< 5.52	–	< 5.52	–
CNC(=O)c1c[nH]nc1NCC#Cc1nc2c(N[C@@H]3CCN(C)C[C@@H]3F)cccn2c1SC(F)(F)F [Example 198]	–	–	–	≤ 5.00	80 to 90%	< 750 nM	> 6.12	–	> 6.12	pKd ([1]; kinetic KD): > 8.00
CNC(=O)c1ccc(NCC#Cc2nc3c(N[C@H]4C[C@@H]5COC[C@@H](N5)[C@H]4F)cccn3c2SC(F)(F)F)c(OC)c1 [Example 279]	≤ 5.00	70 to 80%	< 5.52	–	–	–	–	< 5.52	–	–
CN1CC[C@@H](Nc2cccn3c(SC(F)(F)F)c(C#CCNc4cc(C(=O)NCC(C)(C)O)ccc4OC4COC4)cc23)[C@@H](F)C1 [Example 459, 3-{[3-(8-{[(3S,4R)-3-fluoro-1-methylpiperidin-4-yl]amino}-3-[(trifluoromethyl)sulfanyl]indolizin-2-yl)prop-2-yn-1-yl]amino}-N-(2-hydroxy-2-methylpropyl)-4-(oxetan-3-yloxy)benzamide]	–	–	–	–	–	–	–	–	–	pIC50 (NUGC3 p53 Y220C; NUGC3 cells): > 6.12; pIC50 (H1299 p53 R273H; [6]): ≤ 5.00; AC50 (p53 Y220C; [7]): < 750 nM; Emax (p53 Y220C; [8]): > 90%; pIC50 (H1299 p53 Y220C; [9]): > 6.12
CNC(=O)c1ccc(OC)c(NCC#Cc2cc3c(N[C@@H]4CCN(C)C[C@@H]4F)cccn3c2CC(F)(F)F)c1 [Example 509]	–	–	–	–	–	–	–	–	–	pIC50 (NUGC3 p53 Y220C; NUGC3 cells): > 6.12; pKd [1]: > 8.00; AC50 (p53 Y220C; [7]): < 750 nM; pIC50 (H1299 p53 Y220C; [9]): > 6.12
CNC(=O)c1ccc(NCC#Cc2cc3c(N[C@@H]4CCN(C)C[C@@H]4F)cccn3c2CC(F)(F)F)c(OC)c1 [Example 510]	–	–	–	–	–	–	–	–	–	pIC50 (NUGC3 p53 Y220C; NUGC3 cells): > 6.12; pKd [1]: > 8.00; AC50 (p53 Y220C; [7]): < 750 nM; pIC50 (H1299 p53 Y220C; [9]): > 6.12

Further lines, with some results ahead:

pIC50 (H1299 p53 R273H; [2])	Emax (p53 Y220C; [3])	pIC50 (H1299 p53 Y220C; [4])	pIC50 (H1299 p53 R273H; CellTiter-Glo, H1299 p53 R273H)	Emax (p53 Y220C; [10])	AC50 (p53 Y220C; [11])	pIC50 (H1299 p53 Y220C; CellTiter-Glo, H1299 p53 Y220C)	Compound	pIC50 (NUGC3 p53 Y220C; NUGC3 cells, CellTiter-Glo)	pIC50 (NUGC3 p53 Y220C; CellTiter-Glo, NUGC3 p53 Y220C)	further results
5.10 to 5.30	< 70%	< 5.52	–	–	–	–	CNS(=O)(=O)c1ccc(NCC#Cc2cc3c(N[C@@H]4CCN(C)C[C@@H]4F)cccn3c2SC(F)(F)F)c(OC)c1 [Example 360]	< 5.52	–	AC50 (p53 Y220C; [5]): > 3000 nM
5.00 to 5.10	70 to 80%	< 5.52	–	–	–	–	COc1cc(S(N)(=O)=O)ccc1NCC#Cc1cc2c(N[C@@H]3CCN(C)C[C@@H]3F)cccn2c1SC(F)(F)F [Example 362]	< 5.52	–	AC50 (p53 Y220C; [5]): > 3000 nM
≤ 5.00	70 to 80%	> 6.12	–	–	–	–	CNC(=O)c1ccc(NCC#Cc2nn3c(N[C@@H]4CCN(C)C[C@@H]4F)cccc3c2SC(F)F)c(OC)c1 [Example 366]	> 6.12	–	–
5.00 to 5.10	> 90%	> 6.12	–	–	–	–	CNC(=O)c1ccc(OC)c(NCC#Cc2cc3c(N[C@@H]4CCN(C[C@@H](C)O)C[C@@H]4F)nccn3c2SC(F)(F)F)c1 [Example 401]	> 6.12	–	AC50 (p53 Y220C; [5]): < 750 nM
≤ 5.00	> 90%	> 6.12	–	–	–	–	COc1ccc(C(=O)NC[C@H](O)CO)cc1NCC#Cc1cc2c(N[C@@H]3CCN(C)C[C@@H]3F)cccn2c1SC(F)(F)F [Example 425]	> 6.12	–	AC50 (p53 Y220C; [5]): < 750 nM
≤ 5.00	> 90%	> 6.12	–	–	–	–	COc1cc(P(C)(C)=O)ncc1NCC#Cc1cc2c(N[C@@H]3CCN(C)C[C@@H]3F)cccn2c1SC(F)(F)F [Example 439, 2-(3-{[6-(dimethylphosphoryl)-4-methoxypyridin-3-yl]amino}prop-1-yn-1-yl)-N-[(3S,4R)-3-fluoro-1-methylpiperidin-4-yl]-3-[(trifluoromethyl)sulfanyl]indolizin-8-amine]	> 6.12	–	AC50 (p53 Y220C; [5]): < 750 nM
